Data as given in patent publication US5986108A, “4-substitued-3-[1 or 2 amino acid residue]-azetidin-2-one derivatives useful as cysteine proteinase inhibitor” (Synphar Laboratories, Inc., priority 1997, dated 1999).
Where two headings read alike, the source gives them in different places.

What was measured:
Format in all cases: biochemical
Cathepsin B = Cathepsin B (Rattus norvegicus, UniProt P00787); assay: In vitro assay of inhibition of Cathepsin B (N-CBZ-Phe-Arg-AMC substrate); conditions: r rat CathB, pH5.1, 10 min preincubation at room temperature; read-out: IC50, Cathepsin B
Protocol: After 10 min of incubation at room temperature a 20 μl of 5 mM substrate (N-CBZ-Phe-Arg-AMC, dissolved in DMSO) was added to initiate reaction. Reading is followed up for 10 min at the Fluoroscan reader (excitation at 380 nm, emission at 460 nm).

Cathepsin L = Cathepsin L (Rattus norvegicus, UniProt P07154); assay: Assay of inhibition of Cathepsin L (N-CBZ-Phe-Arg-AMC substrate)
Protocol: After 10 min of incubation at room temperature a 20 μl of 1 mM substrate (N-CBZ-Phe-Arg-AMC, dissolved in DMSO) was added to initiate reaction. Reading is followed up for 10 min at the Fluoroscan reader (excitation at 380 nm, emission at 460 nm).

papain = molecular target: T1, papain (Carica papaya, UniProt P00784); assay: Assay of inhibition of papain (N-CBZ-Pro-Phe-Arg-pNA substrate)
T1 sequence (P00784 134-345): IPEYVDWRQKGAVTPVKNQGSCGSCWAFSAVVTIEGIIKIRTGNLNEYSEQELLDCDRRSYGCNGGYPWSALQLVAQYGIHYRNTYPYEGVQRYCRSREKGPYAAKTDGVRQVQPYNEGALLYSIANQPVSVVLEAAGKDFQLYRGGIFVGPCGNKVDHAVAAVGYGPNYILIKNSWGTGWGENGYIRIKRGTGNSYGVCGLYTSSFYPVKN
Protocol: To a 170 μl of enzyme-buffer mixture (enzyme:papain, diluted to give 30 mOD/min, buffer: 0.2M potassium phosphate, 1.0 mM EDTA, 5 mML Cysteine, pH6.5) a 10 μl of inhibitor (dissolved in DMSO) was added. After 10 min of incubation at room temperature, 20 μl of 10 mM substrate (N-CBZ-Pro-Phe-Arg-pNA, dissolved in DMSO) was added to initiate reaction. Reading is followed up for 3 min at the Thermomax plate reader(absorbance at 405 nm).
A plot of percentage of inhibition vs inhibitor concentration is obtained, and IC50 is determined using a linear regression calculations (concentration of inhibitor which will give 50% inhibition).

[1] = r rat CathL, pH5.0, 10 min preincubation at room temperature, read-out: IC50, Cathepsin L
[2] = pH6.5, 10 min preincubation at room temperature, read-out: IC50, Papain

Chain of Cathepsin L (P07154 114-334): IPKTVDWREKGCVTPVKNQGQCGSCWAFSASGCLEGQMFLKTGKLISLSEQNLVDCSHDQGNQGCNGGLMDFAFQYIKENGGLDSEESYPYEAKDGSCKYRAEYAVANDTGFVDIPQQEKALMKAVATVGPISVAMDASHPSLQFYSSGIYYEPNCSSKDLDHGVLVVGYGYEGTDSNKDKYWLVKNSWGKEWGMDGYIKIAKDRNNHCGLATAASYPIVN
Chain of Cathepsin B (P00787 80-339): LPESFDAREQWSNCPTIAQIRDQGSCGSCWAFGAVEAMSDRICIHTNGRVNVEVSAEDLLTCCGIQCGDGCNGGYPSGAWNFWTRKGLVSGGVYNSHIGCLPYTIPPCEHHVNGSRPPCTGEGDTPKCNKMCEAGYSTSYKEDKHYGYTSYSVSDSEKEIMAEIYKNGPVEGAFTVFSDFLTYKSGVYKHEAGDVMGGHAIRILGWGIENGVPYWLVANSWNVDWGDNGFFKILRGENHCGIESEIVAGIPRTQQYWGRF

| IC50 (Cathepsin L; [1]) | SMILES | IC50 (Cathepsin B) | IC50 (papain; [2]) | IC50 (papain) | IC50 (Cathepsin L) |
| --- | --- | --- | --- | --- | --- |
| 67 nM | O=C(N[C@@H](Cc1ccccc1)C(=O)N[C@@H]1C(=O)N(S(=O)(=O)O)[C@H]1Sc1ccccc1)OCc1ccccc1 [Example 31, (3R,4S)-3-(N-benzyloxycarbonyl-L-phenylalanyl)-amino-4-phenylthio-azetidin-2-one-1-sulfonic acid] | 8430 nM |  |  |  |
| 228 nM | O=C(CCc1ccccc1)N[C@@H](Cc1ccccc1)C(=O)N[C@@H]1C(=O)N[C@H]1Oc1cccc(C(=O)O)c1 [Example 28, (3S,4S)-3-{N-(3-phenylpropionoyl)-L-phenylalanyl}-amino-4-(3-carboxyphenoxy)-azetidin-2-one] | 76 nM |  |  |  |
| 15 nM | CC(C)C[C@H](NC(=O)[C@H]1O[C@@H]1C(=O)O)C(=O)NCCCCN=C(N)N [Example E-64, reference compound] | 5 nM | 2.5 nM |  |  |
| 38 nM | O=C(CCc1ccccc1)N[C@@H](Cc1ccccc1)C(=O)N[C@@H]1C(=O)N[C@H]1Oc1ccc(C(=O)O)cc1 [Example 27B, (3S,4S)-3-{N-(3-phenylpropionoyl)-L-phenylalanyl}-amino-4-(4-carboxyphenoxy)-azetidin-2-one] | 21800 nM |  |  |  |
|  | CON1C[C@@H](NC(=O)[C@H](Cc2ccccc2)NC(=O)OCc2ccccc2)C1=O [Example 3, (3R)-3-(N-benzyloxycarbonyl-L-phenylalanyl)-amino-1-methoxy-azetidin-2-one] | 52000 nM |  | > 63000 nM |  |
| 2310 nM | CC(=O)O[C@@H]1NC(=O)[C@H]1NC(=O)[C@H](Cc1ccccc1)NC(=O)CCN1CCOCC1 [Example 13] | 39200 nM |  |  |  |
|  | CC(=O)O[C@@H]1NC(=O)[C@H]1NC(=O)[C@H](Cc1ccccc1)NC(=O)OCc1ccccc1 [Example 7, (3S,4S)-3-(N-benzyloxycarbonyl-L-phenylalanyl)-amino-4-acetoxy-azetidin-2-one] |  |  | 275 nM |  |
| 5260 nM | N[C@@H](Cc1ccccc1)C(=O)N[C@@H]1C(=O)N[C@H]1Oc1ccc(C(=O)O)cc1 [Example 30B, (3S,4S)-3-(L-phenylalanyl)-amino-4-(4-carboxyphenoxy)-azetidin-2-one] | > 68000 nM |  |  |  |
|  | C[C@H]1[C@H](NC(=O)CNC(=O)[C@H](Cc2ccccc2)NC(=O)OCc2ccccc2)C(=O)N1S(=O)(=O)O [Example 6, Potassium (3S,4S)-3-(N-benzyloxycarbonyl-L-phenylalanyl-glycinyl)-amino-4-methyl-azetidin-2-one-1-sulfonate] | > 25000 nM |  | > 25000 nM |  |
|  | O=C(N[C@@H](Cc1ccccc1)C(=O)N[C@@H]1CNC1=O)OCc1ccccc1 [Example 4, (3R)-3-(N-benzyloxycarbonyl-L-phenylalanyl)-amino-azetidin-2-one] |  |  | 57000 nM |  |
|  | O=C(N[C@@H](Cc1ccccc1)C(=O)N[C@H]1CNC1=O)OCc1ccccc1 [Example 2, (3S)-3-(N-benzyloxycarbonyl-L-phenylalanyl)-amino-azetidin-2-one] | 4810 nM |  | 15800 nM |  |
| 160 nM | O=C(CCc1ccccc1)N[C@@H](Cc1ccccc1)C(=O)N[C@@H]1C(=O)N[C@H]1Oc1ccc(C[C@H](NC(=O)OCc2ccccc2)C(=O)OC(c2ccccc2)c2ccccc2)cc1 [Example 29A, (3S,4S)-3-{N-(3-phenylpropionoyl)-L-phenylalanyl}-amino-4-{4-(L-2-N-benzyloxycarbonylamino-2-diphenylmethoxycarbonyl-ethyl)-phenoxy}-azetidin-2-one] | 590 nM |  |  |  |
|  | CON1C[C@H](NC(=O)[C@H](Cc2ccccc2)NC(=O)OCc2ccccc2)C1=O [Example 1, (3S)-3-(N-benzyloxycarbonyl-L-phenylalanyl)-amino-1-methoxy-azetidin-2-one] | > 63000 nM |  | > 63000 nM |  |
| 82 nM | CC(=O)O[C@@H]1NC(=O)[C@H]1NC(=O)[C@H](Cc1ccccc1)NS(=O)(=O)c1ccc(C(C)(C)C)cc1 [Example 18] | 2120 nM |  |  |  |
| 55.6 nM | O=C(CCc1ccccc1)N[C@@H](Cc1ccccc1)C(=O)N[C@@H]1C(=O)N[C@H]1Oc1ccccc1 [Example 26, (3S,4S)-3-{N-(3-phenylpropionoyl)-L-phenylalanyl}-amino-4-phenoxy-azetidin-2-one] | 2190 nM |  |  |  |
| 0.108 nM | O=C(N[C@@H](Cc1ccccc1)C(=O)N[C@@H]1C(=O)N[C@H]1Sc1ccccc1)OCc1ccccc1 [Example 20, (3R,4S)-3-(N-benzyloxycarbonyl-L-phenylalanyl)-amino-4-phenylthio-azetidin-2-one] |  |  |  |  |
|  | CC(=O)O[C@@H]1NC(=O)[C@H]1NC(=O)[C@H](CC(C)C)NC(=O)OCc1ccccc1 [Example 8, (3S,4S)-3-(N-benzyloxycarbonyl-L-leucyl)-amino-4-acetoxy-azetidin-2-one] |  |  | 731 nM | 30 nM |
| 16.8 nM | O=C(N[C@@H](Cc1ccccc1)C(=O)N[C@@H]1C(=O)N[C@H]1Sc1ccncc1)OCc1ccccc1 [Example 34, (3S,4S)-3-(N-benzyloxycarbonyl-L-phenylalanyl)-amino-4-(pyrid-4-yl) thio-azetidin-2-one] | 330 nM |  |  |  |
|  | C[C@H]1[C@H](NC(=O)[C@H](Cc2ccccc2)NC(=O)OCc2ccccc2)C(=O)N1S(=O)(=O)O [Example 5, Potassium (3S,4S)-3-(N-benzyloxycarbonyl-L-phenylalanyl)-amino-4-methyl-azetidin-2-one-1-sulfonate] | > 25000 nM |  | > 25000 nM |  |
| 0.126 nM | O=C(N[C@@H](Cc1ccccc1)C(=O)N[C@@H]1C(=O)N[C@H]1S(=O)(=O)c1ccccc1)OCc1ccccc1 [Example 21, (3R,4S)-3-(N-benezyloxycarbonyl-phenylalanyl)-amino-4-phenylsulfonyl-azetidin-2-one] | 7390 nM |  |  |  |

| SMILES | IC50 (Cathepsin L; [1]) | IC50 (Cathepsin B) | IC50 (papain; [2]) | IC50 (papain) | IC50 (Cathepsin L) |
| --- | --- | --- | --- | --- | --- |
| CC(=O)Oc1ccc(OCC(=O)N[C@@H](Cc2ccccc2)C(=O)N[C@@H]2C(=O)N[C@H]2OC(C)=O)cc1 [Example 15, (3S,4S)-3-[N-{2-(4-acetoxyphenoxy)-ethanoyl}-L-phenylalanyl]-amino-4-acetoxy-azetidin-2-one] | 2070 nM | 6330 nM |  |  |  |
| CC(=O)N[C@@H](Cc1ccccc1)C(=O)N[C@@H]1C(=O)N[C@H]1OC(C)=O [Example 9] | 2700 nM | 42300 nM | 228 nM |  |  |
| CC(=O)O[C@@H]1NC(=O)[C@H]1NC(=O)[C@H](Cc1ccccc1)NS(=O)(=O)c1ccc2ccccc2c1 [Example 19, (3S,4S)-3-{N-(naphthalen-2-yl-sulfonyl)-L-phenylalanyl}-amino-4-acetoxy-azetidin-2-one] | 416 nM | 7220 nM |  |  |  |
| CC(=O)O[C@@H]1NC(=O)[C@H]1NC(=O)[C@H](Cc1ccccc1)NC(=O)c1cc2ccccc2o1 [Example 16, (3S,4S)-3{N-(benzofuran-2-yl-carbonyl)-L-phenylalanyl}-amino-4-acetoxy-azetidin-2-one] | 35 nM | 5680 nM |  |  |  |
| CC(=O)O[C@@H]1NC(=O)[C@H]1NC(=O)[C@H](Cc1ccccc1)NC(=O)CCc1ccccc1 [Example 10, (3S,4S)-3-{N-(3-phenylpropionoyl)-L-phenylalanyl}-amino-4-acetoxy-azetidin-2-one] | 35 nM | 470 nM |  |  |  |
| CC(=O)O[C@@H]1NC(=O)[C@H]1NC(=O)[C@H](Cc1ccccc1)NC(=O)/C=C/c1cccs1 [Example 17, (3S,4S)-3-[N-{3-(thiophen-2-yl)-trans-prop-2-enoyl}-L-phenylalanyl]-amino-4-acetoxy-azetidin-2-one] | 31.5 nM | 5370 nM |  |  |  |
| CC(=O)O[C@@H]1NC(=O)[C@H]1NC(=O)[C@H](Cc1ccccc1)NC(=O)CCc1cccnc1 [Example 14, (3S,4S)-3-{N-(3-pyrid-3-yl-propionoyl)-L-phenylalanyl}-amino-4-acetoxy-azetidin-2-one] | 1290 nM | 24500 nM |  |  |  |
| CC(=O)O[C@H]1[C@H](NC(=O)[C@H](Cc2ccccc2)NC(=O)OCc2ccccc2)C(=O)N1S(=O)(=O)O [Example 32, (3S,4S)-3-(N-benzyloxycarbonyl-L-phenylalanyl)-amino-4-acetoxy-azetidin-2-one-1-sulfonic acid] | 26 nM | 368 nM |  |  |  |
| CC(=O)O[C@@H]1NC(=O)[C@H]1NC(=O)[C@H](Cc1ccccc1)NC(=O)N1CCOCC1 [Example 12, (3S,4S)-3-{N-(morpholin-yl-carbonyl)-L-phenylalaninyl}-amino-4-acetoxy-azetidin-2-one] | 1580 nM | 7400 nM |  |  |  |
| CC(=O)O[C@@H]1NC(=O)[C@H]1NC(=O)[C@H](Cc1ccccc1)NS(=O)(=O)/C=C/c1ccccc1 [Example 11] | 1840 nM | 1660 nM |  |  |  |
